The NIST ThermoML archive (doi:10.1016/j.jct.2015.12.027)

Experiments:
[1] = refractive index (Na D-line) (dimensionless); xn = mol fraction of the nth substance listed; conditions: 81.5 kPa, Liquid, Standard Abbe refractometry
[2] = xn = mol fraction of the nth substance listed; conditions: 81.5 kPa, Liquid, Vibrating tube method

Brc1ccccc1 [bromobenzene] + ClCCCl
Conditions | mass density, 293.15 K [kg/m3] | mass density, 303.15 K [kg/m3] | mass density, 313.15 K [kg/m3] | mass density, 323.15 K [kg/m3] | mass density, 333.15 K [kg/m3] | refractive index, 293.15 K | refractive index, 303.15 K | refractive index, 313.15 K | refractive index, 323.15 K | refractive index, 333.15 K
[1], x2 = 0 | – | – | – | – | – | 1.55981 | 1.55442 | 1.5489 | 1.54319 | 1.53742
[1], x2 = 0.1031 | – | – | – | – | – | 1.55145 | 1.5466 | 1.54165 | 1.53652 | 1.53135
[1], x2 = 0.2005 | – | – | – | – | – | 1.54415 | 1.53939 | 1.53455 | 1.52957 | 1.52458
[1], x2 = 0.3001 | – | – | – | – | – | 1.53597 | 1.53114 | 1.52627 | 1.5213 | 1.51632
[1], x2 = 0.3997 | – | – | – | – | – | 1.5262 | 1.52135 | 1.51645 | 1.51147 | 1.5065
[1], x2 = 0.4996 | – | – | – | – | – | 1.51453 | 1.50972 | 1.50487 | 1.49994 | 1.49501
[1], x2 = 0.6001 | – | – | – | – | – | 1.50149 | 1.49679 | 1.49202 | 1.48719 | 1.48235
[1], x2 = 0.6993 | – | – | – | – | – | 1.48764 | 1.48301 | 1.47833 | 1.47357 | 1.46881
[1], x2 = 0.7993 | – | – | – | – | – | 1.47349 | 1.46883 | 1.46414 | 1.45938 | 1.45461
[1], x2 = 0.8986 | – | – | – | – | – | 1.45961 | 1.45476 | 1.44989 | 1.44499 | 1.44008
[2], x2 = 0 | 1495.52 | 1481.97 | 1468.41 | 1454.85 | 1441.22 | – | – | – | – | –
[2], x2 = 0.1031 | 1475.66 | 1461.99 | 1448.3 | 1434.54 | 1420.74 | – | – | – | – | –
[2], x2 = 0.2005 | 1455.9 | 1442.07 | 1428.17 | 1414.26 | 1400.29 | – | – | – | – | –
[2], x2 = 0.3001 | 1434.62 | 1420.64 | 1406.6 | 1392.5 | 1378.34 | – | – | – | – | –
[2], x2 = 0.3997 | 1412.26 | 1398.16 | 1383.98 | 1369.73 | 1355.39 | – | – | – | – | –
[2], x2 = 0.4996 | 1388.86 | 1374.68 | 1360.39 | 1345.98 | 1331.47 | – | – | – | – | –
[2], x2 = 0.6001 | 1364.37 | 1350.09 | 1335.69 | 1321.15 | 1306.48 | – | – | – | – | –
[2], x2 = 0.6993 | 1339.1 | 1324.73 | 1310.2 | 1295.56 | 1280.77 | – | – | – | – | –
[2], x2 = 0.7993 | 1312.25 | 1297.77 | 1283.16 | 1268.43 | 1253.56 | – | – | – | – | –
[2], x2 = 0.8986 | 1283.81 | 1269.28 | 1254.59 | 1239.77 | 1224.87 | – | – | – | – | –
